Measurements published in publication PMC9853328, “Potent Platinum(IV) Prodrugs That Incorporate a Biotin Moiety to Selectively Target Cancer Cells” (Pharmaceutics, 2022).

Key:
Format in all cases: cell-based
[1] = test system: non-cancerous MCF10A breast cell line; assay: MTT in vitro cytotoxicity assay, MCF10A; conditions: 72 h drug exposure, n = 3, read-out: GI50 ± SEM, MCF10A
Procedure: (§1) The in vitro cytotoxicity assays were undertaken at Calvary Mater Hospital, Waratah, NSW, Australia, following a method previously published in the literature. A stock solution for each compound was prepared in DMSO (30 mM) and stored at −20 °C. The cell lines used in the study include HT29 colon, U87 glioblastoma, MCF-7 breast, A2780 ovarian, H460 lung, A431 skin, Du145 prostate, BE2-C neuroblastoma, SJ-G2 glioblastoma, MIA pancreas, and cisplatin-resistant ADDP ovarian (subclone of A2780) cancer cells, as well as the non-cancerous-derived MCF10A breast cell line. The cancer cell lines were cultured in a humidified atmosphere 5% CO2 at 37 °C and maintained in Dulbecco’s modified Eagle’s medium (Trace Biosciences, Sydney, Australia), supplemented with 10% foetal bovine serum, sodium bicarbonate (10 mM), penicillin (100 IU/mL), streptomycin (100 µg/mL), and glutamine (4 mM). The non-cancerous MCF10A cell line was maintained in DMEM:F12 (1:1) cell culture media, with 5% heat inactivated horse serum, supplemented with penicillin (50 IU/mL), streptomycin (50 µg/mL), glutamine (2 mM), HEPES (20 mM), epidermal growth factor (20 ng/mL), hydrocortisone (500 ng/mL), cholera toxin (100 ng/mL), and insulin (10 µg/mL). Cells were plated in duplicate in medium (100 µL) at a density of 2500–4000 cells per well in 96-well plates. On day 0, (24 h after plating) when the cells were in logarithmic growth, medium (100 μL) with or without the test agent was added to each well. The growth inhibitory effects were evaluated after 72 h drug exposure, using the MTT (3-(4,5-dimethylthiazol-2-yl)-2,5-diphenyltetrazolium bromide) assay, with the absorbance read at 540 nm. An eight-point dose–response curve was produced, which was used to determine the concentration at which growth was inhibited by 50% (GI50). This calculation was based on the difference between the optical density values on day 0 and those at the end of drug exposure. […] Experiments were conducted on three separate occasions and GI50 values were reported as the mean and standard error of the mean.

[2] = test system: cisplatin-resistant ADDP ovarian (subclone of A2780) cancer cells; assay: MTT in vitro cytotoxicity assay, ADDP; conditions: 72 h drug exposure, n = 3, read-out: GI50 ± SEM, ADDP
Procedure: as §1

[3] = test system: MCF-7 breast cancer cells; assay: MTT in vitro cytotoxicity assay, MCF-7; conditions: for GI50: MTT, 72 h drug exposure, n = 3, read-out: GI50 ± SEM, MCF-7; for selectivity towards MCF-7 compared to MCF10A (cytotoxicity): GI50 MCF10A versus GI50 MCF-7
[4] = test system: SJ-G2 glioblastoma cells; assay: MTT in vitro cytotoxicity assay, SJ-G2; conditions: 72 h drug exposure, n = 3, read-out: GI50 ± SEM, SJ-G2
Procedure: as §1

[5] = test system: U87 glioblastoma cells; assay: MTT in vitro cytotoxicity assay, U87; conditions: 72 h drug exposure, n = 3, read-out: GI50 ± SEM, U87
Procedure: as §1

[6] = test system: H460 lung cancer cells; assay: MTT in vitro cytotoxicity assay, H460; conditions: 72 h drug exposure, n = 3, read-out: GI50 ± SEM, H460
Procedure: as §1

[7] = test system: A2780 ovarian cancer cells; assay: MTT in vitro cytotoxicity assay, A2780; conditions: 72 h drug exposure, n = 3, read-out: GI50 ± SEM, A2780
Procedure: as §1

[8] = test system: Du145 prostate cancer cells; assay: MTT in vitro cytotoxicity assay, Du145; conditions: MTT, 72 h drug exposure, n = 3; read-out: GI50 ± SEM, Du145
Procedure: as §1

[9] = test system: BE2-C neuroblastoma cells; assay: MTT in vitro cytotoxicity assay, BE2-C; conditions: 72 h drug exposure, n = 3, read-out: GI50 ± SEM, BE2-C
Procedure: as §1

[10] = test system: ADDP (subclone of A2780) versus A2780 ovarian cancer cell lines; assay: Resistance factor, GI50 in ADDP/GI50 in A2780
[11] = test system: A431 skin cancer cells; assay: MTT in vitro cytotoxicity assay, A431; conditions: 72 h drug exposure, n = 3, read-out: GI50 ± SEM, A431
Procedure: as §1

[12] = test system: HT29 colon cancer cells; assay: MTT in vitro cytotoxicity assay, HT29; conditions: MTT, 72 h drug exposure, n = 3; read-out: GI50 ± SEM, HT29
Procedure: as §1

[13] = test system: MIA pancreas cancer cells; assay: MTT in vitro cytotoxicity assay, MIA; conditions: 72 h drug exposure, n = 3, read-out: GI50 ± SEM, MIA
Procedure: as §1

Cc1cc2ccc[n+]3c2c2c1ccc[n+]2[Pt-2]31[NH2+][C@H]2CCCC[C@@H]2[NH2+]1.[Cl-].[Cl-] [5MESS(II)]
GI50 [1]: 30 ± 1.8 nM
GI50 [2]: 34 ± 2.3 nM
GI50 [3]: 200 ± 12 nM
GI50 [4]: 220 ± 10 nM
GI50 [5]: 320 ± 26 nM
GI50 [6]: 41 ± 5 nM
GI50 [7]: 61 ± 10 nM
GI50 [8]: 22 ± 2.7 nM
GI50 [9]: 270 ± 38 nM
Resistance factor (RF) [10]: 0.557
GI50 [11]: 120 ± 25 nM
GI50 [12]: 33 ± 3.8 nM
GI50 [13]: 48 ± 2 nM

Cc1cc2ccc[n+]3c2c2c1ccc[n+]2[Pt-2]31([OH])([OH])[NH2+][C@H]2CCCC[C@@H]2[NH2+]1.O=[N+]([O-])[O-].O=[N+]([O-])[O-] [5MESS(IV)]
GI50 [1]: 220 ± 26 nM
GI50 [2]: 180 ± 24 nM
GI50 [3]: 560 ± 200 nM
GI50 [4]: 600 ± 74 nM
GI50 [5]: 830 ± 170 nM
GI50 [6]: 180 ± 32 nM
GI50 [7]: 110 ± 26 nM
GI50 [8]: 36 ± 3.2 nM
GI50 [9]: 1100 ± 180 nM
Resistance factor (RF) [10]: 1.636
GI50 [11]: 240 ± 7 nM
GI50 [12]: 150 ± 9 nM
GI50 [13]: 290 ± 34 nM

COc1cc[n+]2c3c1ccc1c(OC)cc[n+](c13)[Pt-2]21[NH2+][C@H]2CCCC[C@@H]2[NH2+]1.[Cl-].[Cl-] [47OMESS(II)]
GI50 [1]: 430 ± 37 nM
GI50 [2]: 170 ± 10 nM
selectivity towards MCF-7 compared to MCF10A (cytotoxicity) [3]: 3 fold
GI50 [3]: 150 ± 45 nM
GI50 [4]: 1300 ± 67 nM
GI50 [5]: 390 ± 60 nM
GI50 [6]: 500 ± 58 nM
GI50 [7]: 230 ± 7 nM
GI50 [8]: 85 ± 4.8 nM
GI50 [9]: 2600 ± 260 nM
Resistance factor (RF) [10]: 0.739
GI50 [11]: 350 ± 26 nM
GI50 [12]: 120 ± 16 nM
GI50 [13]: 240 ± 42 nM

COc1cc[n+]2c3c1ccc1c(OC)cc[n+](c13)[Pt-2]21([OH])([OH])[NH2+][C@H]2CCCC[C@@H]2[NH2+]1.O=[N+]([O-])[O-].O=[N+]([O-])[O-] [47OMESS(IV)]
GI50 [1]: 3700 ± 380 nM
GI50 [2]: 1300 ± 58 nM
selectivity towards MCF-7 compared to MCF10A (cytotoxicity) [3]: 7 fold
GI50 [3]: 510 ± 168 nM
GI50 [4]: 7600 ± 1800 nM
GI50 [5]: 2600 ± 390 nM
GI50 [6]: 3100 ± 210 nM
GI50 [7]: 1700 ± 230 nM
GI50 [8]: 270 ± 38 nM
GI50 [9]: 33000 ± 3200 nM
Resistance factor (RF) [10]: 0.765
GI50 [11]: 3300 ± 590 nM
GI50 [12]: 520 ± 85 nM
GI50 [13]: 1900 ± 460 nM
